The NIST ThermoML archive (doi:10.1021/je060271a)
“And” between values parts separate entries of the source, which are not always exact repeats. Equal values may be shown once.

Conditions: 343.15 K, Liquid, Vibrating tube method

CCCCCC(=O)OCC(COC(=O)CCCCC)(COC(=O)CCCCC)COC(=O)CCCCC [pentaerythritol tetrahexanoate]
Conditions | mass density
398.2 kPa | 957.4 kg/m3
398.4 kPa | 957.4 kg/m3
399.3 kPa | 957.3 kg/m3
399.8 kPa | 957.5 kg/m3
400.1 kPa | 957.4 kg/m3
400.6 kPa | 957.2 kg/m3
400.8 kPa | 957.4 kg/m3
401.5 kPa | 957.5 kg/m3
402 kPa | 957.5 kg/m3
402.4 kPa | 957.3 kg/m3
402.9 kPa | 957.6 kg/m3
403.4 kPa | 957.4 kg/m3
403.9 kPa | 957.4 kg/m3
404.3 kPa | 957.5 kg/m3
404.8 kPa | 957.4 kg/m3
407.4 kPa | 957.3 kg/m3
407.9 kPa | 957.4 kg/m3
408.6 kPa | 957.4 kg/m3
409 kPa | 957.3 kg/m3
409.2 kPa | 957.4 kg/m3
409.9 kPa | 957.3 kg/m3
410.4 kPa | 957.3 kg/m3
413 kPa | 957.4 kg/m3
413.5 kPa | 957.5 kg/m3
413.9 kPa | 957.4 kg/m3
414.4 kPa | 957.4 kg/m3
414.9 kPa | 957.3 kg/m3
415.1 kPa | 957.5 kg/m3
418 kPa | 957.4 kg/m3
418.5 kPa | 957.5 kg/m3
419.6 kPa | 957.4 kg/m3
419.8 kPa | 957.4 kg/m3
420.3 kPa | 957.3 kg/m3
421.3 kPa | 957.3 kg/m3
421.5 kPa | 957.3 kg/m3
423.4 kPa | 957.3 kg/m3
423.9 kPa | 957.3 kg/m3
424.1 kPa | 957.4 kg/m3
425.1 kPa | 957.3 kg/m3
425.5 kPa | 957.4 kg/m3
425.7 kPa | 957.4 kg/m3
426.2 kPa | 957.4 kg/m3
426.7 kPa | 957.3 kg/m3
427.2 kPa | 957.3 kg/m3
427.9 kPa | 957.5 kg/m3
428.4 kPa | 957.4 kg/m3
429 kPa | 957.5 kg/m3
429.5 kPa | 957.4 kg/m3
429.8 kPa | 957.5 kg/m3
430.4 kPa | 957.5 kg/m3
430.9 kPa | 957.4 kg/m3
431.6 kPa | 957.4 kg/m3 and 957.5 kg/m3
431.9 kPa | 957.5 kg/m3
432.6 kPa | 957.4 kg/m3
432.8 kPa | 957.5 kg/m3
433 kPa | 957.3 kg/m3
435 kPa | 957.5 kg/m3
437.5 kPa | 957.5 kg/m3
440.8 kPa | 957.4 kg/m3
443.6 kPa | 957.3 kg/m3
446.3 kPa | 957.4 kg/m3
449.5 kPa | 957.5 kg/m3
452.2 kPa | 957.5 kg/m3
455.6 kPa | 957.4 kg/m3
458.5 kPa | 957.4 kg/m3
461.8 kPa | 957.4 kg/m3
464.6 kPa | 957.3 kg/m3
468.2 kPa | 957.4 kg/m3
471.5 kPa | 957.4 kg/m3
474.8 kPa | 957.4 kg/m3
477.4 kPa | 957.5 kg/m3
481.3 kPa | 957.6 kg/m3
484.6 kPa | 957.4 kg/m3
487.7 kPa | 957.3 kg/m3
491.5 kPa | 957.4 kg/m3
525.8 kPa | 957.3 kg/m3
529.4 kPa | 957.6 kg/m3
533.4 kPa | 957.5 kg/m3
538.1 kPa | 957.5 kg/m3
545.9 kPa | 957.4 kg/m3
550.2 kPa | 957.6 kg/m3
555.3 kPa | 957.6 kg/m3
559.3 kPa | 957.5 kg/m3
564 kPa | 957.5 kg/m3
569 kPa | 957.5 kg/m3
573.7 kPa | 957.5 kg/m3
578 kPa | 957.5 kg/m3
584 kPa | 957.6 kg/m3
588.1 kPa | 957.6 kg/m3
593 kPa | 957.5 kg/m3
603.9 kPa | 957.5 kg/m3
609 kPa | 957.6 kg/m3
614.9 kPa | 957.5 kg/m3
620.1 kPa | 957.6 kg/m3
625 kPa | 957.5 kg/m3
631.2 kPa | 957.5 kg/m3
636.6 kPa | 957.6 kg/m3
641.6 kPa | 957.6 kg/m3
647 kPa | 957.7 kg/m3
653.6 kPa | 957.6 kg/m3
659.4 kPa | 957.5 kg/m3
666.5 kPa | 957.5 kg/m3
672.6 kPa | 957.7 kg/m3
678.3 kPa | 957.5 kg/m3
684.7 kPa | 957.7 kg/m3
691 kPa | 957.6 kg/m3
697.2 kPa | 957.5 kg/m3
704.9 kPa | 957.6 kg/m3
711.5 kPa | 957.6 kg/m3
719.3 kPa | 957.5 kg/m3
725.9 kPa | 957.6 kg/m3
732.7 kPa | 957.6 kg/m3
739.6 kPa | 957.6 kg/m3
747.6 kPa | 957.6 kg/m3
786 kPa | 957.7 kg/m3
793.7 kPa | 957.6 kg/m3
801.8 kPa | 957.7 kg/m3
809.8 kPa | 957.8 kg/m3
818 kPa | 957.6 kg/m3
828.1 kPa | 957.7 kg/m3
836.4 kPa | 957.7 kg/m3
845.3 kPa | 957.6 kg/m3
855.7 kPa | 957.8 kg/m3
864.5 kPa | 957.8 kg/m3
873.7 kPa | 957.7 kg/m3
883.3 kPa | 957.6 kg/m3
894.6 kPa | 957.6 kg/m3
904.5 kPa | 957.9 kg/m3
915.8 kPa | 957.7 kg/m3
967 kPa | 957.8 kg/m3
977.1 kPa | 957.8 kg/m3
989.1 kPa | 957.8 kg/m3
999.5 kPa | 957.8 kg/m3
1011.5 kPa | 957.9 kg/m3
1022.2 kPa | 957.7 kg/m3
1032.7 kPa | 958 kg/m3
1043.4 kPa | 957.9 kg/m3
1053.7 kPa | 957.9 kg/m3
1066.4 kPa | 958 kg/m3
1076.6 kPa | 957.9 kg/m3
1087.5 kPa | 957.9 kg/m3
1100.4 kPa | 957.8 kg/m3
1110.6 kPa | 958 kg/m3
1121.6 kPa | 957.9 kg/m3
